Reference: patent publication US8729334B2, “Method for determining genotoxicity using non-fluorescent proteins” (priority 2010, dated 2014)
Read-outs that look alike come from different tables or passages of the source.

What was measured:
[1] = system: CH4003 (TA98 carrying EGFP^mut3 on chromosome); test: His+ reversion, strain CH4003; conditions: for Number of revertants, EGFP^mut2 TA98, phenotype His^+: total 10^6 bacteria plated on minimal media plates
Experimental: (§1) The EGFP^mut DNA was inserted into the chromosome of Salmonella typhimurium LT2 strain via its putA site approximately 5 minutes away from the termination (ter) region of the chromosome (Elliott, 1992). lacP-EGFP^mut::CAT DNA was amplified with primers that contain sequences for the putA site of S. enterica serovar Typhimurium: 5′-primer […] […] […], which consisted of 50-nt or 55-nt of putA (putA sequences are underlined) and 25-nt or 22-nt sequences flaking lacP-nonEGFP::cat using pEGFP^mut::CAT plasmid as template. The 1.4-kbp PCR products were purified and transformed into bacteria carrying a Red helper plasmid (pKD46) by electroporation (Datsenko and Wanner, 2000). The Linear DNA contained a chloramphenicol gene as a marker for the P22 transduction into the S. typhimurium strain of Ames test, TA100 and TA98 to construct CH4001 and 4003, respectively (Davis, et al., 1980).
(§2) The plate-incorporation assay was carried out as described (OECD, 1997). Briefly, bacterial cells from stock cultures were grown for 12 hr in liquid medium at 37° C. A volume of 0.1 mL bacterial suspension was added to 2 mL of top agar (Difco) medium containing 0.6% agar, 0.6% NaCl and 20.96 μg of l-histidine and d-biotin (Sigma). Test solution (or solvent control, or positive control agent) and the S9-mix (0.5 mL/plate; 10% (v/v) S9) or potassium phosphate buffer (0.5 mL/plate; 0.2 M, pH 7.4; Sigma) were also added to the top agar which was then mixed and poured onto the top of Vogel-Bonner minimal medium agar plates (3 replicates/dose for the treated and 6 replicates for the solvent control). Colonies were counted 48 hr after incubation at 37° C. The highest volume of the test solution added per plate was initially limited to 100 μL, and then increased up to 200 μL in confirmation studies.
Subsequently, the gene for EGFP^mut was placed in the chromosome of relevant Salmonella typhimurium to establish mutation test strains analogous to that of Ames test. […]

[2] = system: MutaFish^3 carrying EGFP^mut3; test: Genotoxicity test in transgenic zebrafish embryos, MutaFish^3; assay type: in vivo, zebrafish (Danio rerio)
Experimental: Almost all embryos were hatched during this incubation period.
One highly transgene-positive line was established.

S. typhimurium TA98 = test: Ames test, His+ reversion, tester strain TA98; conditions: for Number of revertants, TA98, phenotype His^+: total 10^6 bacteria plated on minimal media plates
Experimental: (§3) S. typhimurium strain of Ames test, TA98 and TA, were purchased and grown following manufacture's instruction (Xenometrix AG, Switzerland). CH4001 and CH4003 strains carrying EGFP^mut DNA on their chromosomes (Table 1) were created as described in Result section.
as §2
(§4) We tested mutation frequency of these two strains together with conventional Ames test strains, TA100 and TA98, in the presence of mutagens, ENU and ICR191. ENU is known to induce base-pair substitution while ICR191 frameshift mutation (OECD, 1997). His^+ revertants were selected on minimal plates and EGFP^+ revertants were screened on NA plates which allowed visualization of about 10^6 colonies individually. […], a test strain for frameshift mutation, together with TA98, was incubated with 1 mg/plate ICR191.

[3] = system: CH4003 (TA98 carrying EGFP^mut3 on chromosome); conditions: for Number of revertants, EGFP^mut2 TA98, phenotype EGFP^+: total 10^6 bacteria plated on NA plates
Experimental: as §1
(§5) Subsequently, the gene for EGFP^mut was placed in the chromosome of relevant Salmonella typhimurium to establish mutation test strains analogous to that of Ames test. Linear DNA transformation method using λ Red system (Datsenko and Wanner, 2000) was employed to place the EGFP^mut genes at putAP sites (Elliott, 1992) in the wild type Salmonella chromosome, LT2. Then, each EGFP^mut1 and EGFP^mut3 gene was moved to TA100 and TA98 using generalized transducing phage, P22, resulting in a construction of CH 4001 and 4003.
as §4

[4] = system: CH4001 (TA100 carrying EGFP^mut1 on chromosome); test: His+ reversion, strain CH4001
Experimental: as §1
The plate-incorporation assay was carried out as described (OECD, 1997). Briefly, bacterial cells from stock cultures were grown for 12 hr in liquid medium at 37° C. A volume of 0.1 mL bacterial suspension was added to 2 mL of top agar (Difco) medium containing 0.6% agar, 0.6% NaCl and 20.96 μg of l-histidine and d-biotin (Sigma). […] Colonies were counted 48 hr after incubation at 37° C. […]

S. typhimurium TA100 = test: Ames test, His+ reversion, tester strain TA100
Experimental: as §3, §2
We tested mutation frequency of these two strains together with conventional Ames test strains, TA100 and TA98, in the presence of mutagens, ENU and ICR191. […]

[5] = system: MutaFish^1 carrying EGFP^mut1; test: Genotoxicity test in transgenic zebrafish embryos, MutaFish^1
Text: EGFP^mut plasmid constructed as described above was microinjected into one-cell stage fertilized eggs laid by the AB* zebrafish line (Oregon University, Corvallis, Oreg.) with transposase mRNA. The microinjected eggs were raised to sexual maturity and mated to wild type AB* zebrafish. Subsequently, the resulting embryos were screened for the presence of mCherry fluorescence in the heart. The screened embryos (hereinafter named as F1) were processed for RT-PCR, Western blotting and Southern blotting to verify the genomic integration of mutant EGFP. The F1 embryos were raised again to sexual maturity and mated to each other to generate F2 embryos homozygous for EGFP^mut. F3 embryos, generated by in-cross between F2 zebrafish, were raised again to sexual maturity.
Fertilized eggs were obtained by pair mating transgenic F3 female and nontransgenic male fish. We divided 24 hr embryos, still coated with chorion, into three groups (266 embryos/group) and exposed them for 30 min at 26° C. to 10 ml of 0, 2, or 5 mM ENU in 0.1% Instant Ocean salts (Senja Pharmaceutical, Hyogo, Japan). Mutagenized embryos were then rinsed and kept in a 28.5° C. incubator for three days. […] The pooled surviving larvae were checked for morphological abnormality and EGFP^+ larvae were selected and then scored by FACSAria (BD Biosciences).
We injected Tol2 plasmid encoding EGFP^mut and transposase mRNA into one-cell stage fertilized zebrafish eggs. F1 progeny with germline transmission were selected by PCR and Southern blot analysis as described in the Experimental Protocol.
To evaluate whether these transgenic fishes could detect mutations in vivo, 24 hr embryos obtained by pair mating the transgenic and nontransgenic fish were treated with mutagens for 30 min: MutaFish^1 with ENU (5 mM) and MutaFish^3 with ICR191 (10 mM). Three days after treatment, the number of EGFP^+ larvae was determined (Table 4).

[6] = system: CH4001 (TA100 carrying EGFP^mut1 on chromosome)
Experimental: as §1, §5, §4

[7] = 0.1 mg/plate ENU, total 10^6 bacteria plated on minimal media plates
[8] = EGFP^mut1 MutaFish, 24 hr embryos, 5 mM ENU for 30 min, scored three days after treatment

Compound: COc1ccc2nc3cc(Cl)ccc3c(NCCCNCCCl)c2c1 [ICR191]
- mutation frequency of His^+ revertants in CH4003 ([1]; 1 mg/plate ICR191): 420.8×10^−6
- Number of revertants, EGFP^mut2 TA98, phenotype His^+ ([1]; 1 mg/plate ICR191): 377.6
- frequency of EGFP^+ larvae ([2]; MutaFish^3, ICR191 10 mM for 30 min, three days after treatment): 2.32×10^−3
- Morphological abnormality (%) ([2]; zebrafish, in vivo): 24.2%
- Mutant frequency × 10^−5 ([2]; zebrafish, in vivo): 232 × 10^−5
- Survival rate (%) ([2]; zebrafish, in vivo): 79.2%
- frequency of His^+ revertants in TA98 (S. typhimurium TA98; 1 mg/plate ICR191): 327.6×10^−6
- Number of revertants, TA98, phenotype His^+ (S. typhimurium TA98; 1 mg/plate ICR191): 420.8
- Number of revertants, EGFP^mut2 TA98, phenotype EGFP^+ ([3]; 1 mg/plate ICR191): 456.3
- frequency of EGFP^+ revertants ([3]; in the presence of ICR191 (1 mg/plate), CH4003): 456.3×10^−6

Compound: CCN(N=O)C(N)=O [ENU]
- Number of revertants, EGFP^mut1 TA100, phenotype His^+ [4, 7]: 5.2
- frequency of His^+ revertants in CH4001 ([4]; 0.1 mg/plate of ENU): 5.2×10^−6
- Number of revertants, EGFP^mut2 TA98, phenotype His^+ ([1]; 0.1 mg/plate ENU): 3.5
- Number of revertants, TA100, phenotype His^+ (S. typhimurium TA100; [7]): 5.6
- frequency of His^+ revertants in TA100 (S. typhimurium TA100; 0.1 mg/plate of ENU): 5.6×10^−6
- Morphological abnormality (%) [5, 8]: 20.9%
- Survival rate (%) [5, 8]: 97.3%
- Mutant frequency × 10^−5 ([5]; EGFP^mut1 MutaFish, EGFP^+ larvae, 5 mM ENU for 30 min, three days after treatment): 63 × 10^−5
- frequency of EGFP^+ larvae ([5]; MutaFish^1, ENU 5 mM for 30 min, three days after treatment): 6.3×10^−4
- Number of revertants, TA98, phenotype His^+ (S. typhimurium TA98; 0.1 mg/plate ENU): 3.2
- Number of revertants, EGFP^mut1 TA100, phenotype EGFP^+ ([6]; 0.1 mg/plate ENU, total 10^6 bacteria plated on NA plates): 7.1
- frequency of EGFP^+ reversion ([6]; in the presence of ENU (0.1 mg/plate), CH4001): 7.1×10^−6
- Number of revertants, EGFP^mut2 TA98, phenotype EGFP^+ ([3]; 0.1 mg/plate ENU): 3.2
